One experiment concerns the target T1, USP5 (Homo sapiens, UniProt P45974).
T1 sequence (P45974 1-858): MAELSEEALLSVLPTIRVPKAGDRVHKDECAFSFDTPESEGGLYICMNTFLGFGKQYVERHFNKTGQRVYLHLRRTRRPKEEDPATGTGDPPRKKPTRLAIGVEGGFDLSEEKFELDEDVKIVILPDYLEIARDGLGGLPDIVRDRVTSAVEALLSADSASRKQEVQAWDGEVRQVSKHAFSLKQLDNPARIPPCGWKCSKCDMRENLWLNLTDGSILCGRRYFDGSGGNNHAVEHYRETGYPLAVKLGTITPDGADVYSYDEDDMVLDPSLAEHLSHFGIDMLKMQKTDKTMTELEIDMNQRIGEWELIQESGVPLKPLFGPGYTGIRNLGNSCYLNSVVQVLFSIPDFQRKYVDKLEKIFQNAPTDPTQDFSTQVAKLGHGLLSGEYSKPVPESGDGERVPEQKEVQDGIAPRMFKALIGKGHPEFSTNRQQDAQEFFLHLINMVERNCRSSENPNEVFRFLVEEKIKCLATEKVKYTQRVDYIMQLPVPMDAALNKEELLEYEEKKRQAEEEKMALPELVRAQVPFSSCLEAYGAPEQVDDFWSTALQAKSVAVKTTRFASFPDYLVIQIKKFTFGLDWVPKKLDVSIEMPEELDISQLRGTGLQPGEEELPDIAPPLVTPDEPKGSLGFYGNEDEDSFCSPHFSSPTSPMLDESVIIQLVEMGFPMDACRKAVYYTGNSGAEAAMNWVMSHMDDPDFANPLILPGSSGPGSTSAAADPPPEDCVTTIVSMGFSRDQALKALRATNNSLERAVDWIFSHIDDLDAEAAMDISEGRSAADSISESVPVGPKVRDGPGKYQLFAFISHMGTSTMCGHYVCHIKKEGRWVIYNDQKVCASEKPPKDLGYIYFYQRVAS
Briefly: USP5 activity assay (Ub-AMC). The format is biochemical. The settings on record: 300 nM Ub-AMC, 300 pM enzyme. The protocol: USP5 was diluted in USP buffer (50 mM Tris HCl; 0.5 mM EDTA; 5 mM DTT; 0.01% Triton X-100; Bovine Serum Albumin 0.05 mg·ml^−1 pH 7.6). Compounds stocks (100 mM) were stored at −20° C. in DMSO. Compounds were tested at different concentrations: from 200 μM to 91 nM.
Reactions were performed as duplicates in Black 384 well plates (small volume microplates; Greiner; 10 μl final reaction volume). The substrate concentration for USP5 was 300 nM Ub-AMC (Boston Biochem). The concentrations of the enzyme (USP5) in specificity assays was 300 pM. The concentrations were determined in order to perform specificity assays under initial velocities at fixed substrate concentration. Compounds were pre-incubated with enzymes for 30 minutes at 25° C. Reactions were initiated by addition of substrate to the plates containing the enzymes (+/−compounds) diluted in assay buffer. Reactions were incubated for 60 minutes at 37° C. Reactions were stopped by adding acetic acid (100 mM final). Readings were performed on a Pherastar Fluorescent Reader (BMG). λ Emission 380 nm; λ Excitation=460 nm. Data (mean values+/−standard deviation) were analyzed as % of control (no compound) and plotted as percentage versus the Log of the compound concentration using GraphPad (Prism). Data were fitted to a sigmoidal model (variable slope).
Chain of USP7 (Q93009 whole entry): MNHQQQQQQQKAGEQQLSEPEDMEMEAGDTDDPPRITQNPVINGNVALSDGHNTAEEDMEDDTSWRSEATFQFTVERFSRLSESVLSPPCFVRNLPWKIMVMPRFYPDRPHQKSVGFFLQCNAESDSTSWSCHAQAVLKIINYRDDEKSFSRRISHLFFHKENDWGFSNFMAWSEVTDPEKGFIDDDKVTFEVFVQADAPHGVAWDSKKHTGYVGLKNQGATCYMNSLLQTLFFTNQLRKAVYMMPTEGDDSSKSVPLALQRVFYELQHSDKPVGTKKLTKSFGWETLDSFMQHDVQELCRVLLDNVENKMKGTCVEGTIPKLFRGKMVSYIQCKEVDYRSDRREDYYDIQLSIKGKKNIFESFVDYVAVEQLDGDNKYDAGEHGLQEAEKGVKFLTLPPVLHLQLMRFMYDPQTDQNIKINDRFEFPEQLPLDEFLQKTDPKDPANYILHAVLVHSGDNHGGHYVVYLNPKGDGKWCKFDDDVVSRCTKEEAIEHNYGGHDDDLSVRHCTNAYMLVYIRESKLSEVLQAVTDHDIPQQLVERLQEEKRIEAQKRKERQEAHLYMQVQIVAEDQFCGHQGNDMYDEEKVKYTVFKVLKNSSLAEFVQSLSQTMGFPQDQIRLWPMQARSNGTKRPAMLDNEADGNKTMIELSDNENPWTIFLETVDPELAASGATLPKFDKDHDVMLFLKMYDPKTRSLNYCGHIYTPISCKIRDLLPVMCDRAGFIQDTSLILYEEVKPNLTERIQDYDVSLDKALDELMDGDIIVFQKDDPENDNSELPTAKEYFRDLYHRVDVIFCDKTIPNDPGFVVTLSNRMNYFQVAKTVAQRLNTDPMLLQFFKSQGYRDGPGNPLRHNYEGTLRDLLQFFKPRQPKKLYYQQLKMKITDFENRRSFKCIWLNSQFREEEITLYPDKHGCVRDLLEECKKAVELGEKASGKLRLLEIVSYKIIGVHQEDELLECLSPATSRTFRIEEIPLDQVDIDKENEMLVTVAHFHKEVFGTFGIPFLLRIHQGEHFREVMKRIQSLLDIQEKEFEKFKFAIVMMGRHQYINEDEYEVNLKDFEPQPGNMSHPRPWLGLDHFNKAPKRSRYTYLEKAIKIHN
Usually IC50 stands for the point on the concentration scale where inhibition reaches its midpoint. Low readings indicate greater potency in that assay, high ones weaker potency in that assay. `CCCN(CCC)CCCNC(=O)c1ccc2c(Cl)c3c(nc2c1)CCCC3` [Example 6, 9-Chloro-5,6,7,8-tetrahydro-acridine-3-carboxylic acid (3-dipropylamino-propyl)-amide] gave an IC50 of over 200 µM.

For the compound `CCCCN(CC)CCNC(=O)c1ccc2c(Cl)c3c(nc2c1)CCCC3` [Example 4, 9-Chloro-5,6,7,8-tetrahydro-acridine-3-carboxylic acid [2-(butyl-ethyl-amino)-ethyl]-amide], the IC50 is over 200 µM.

Take `CN(CCCNC(=O)c1ccc2c(Cl)c3c(nc2c1)CCCC3)Cc1ccccc1` [Example 14, 9-Chloro-5,6,7,8-tetrahydro-acridine-3-carboxylic acid [3-(benzyl-methyl-amino)-propyl]-amide]: the IC50 was over 200 µM. Consider `CCN(CCCNC(=O)c1ccc2c(Cl)c3c(nc2c1)CCCC3)Cc1ccccc1` [Example 5, 9-Chloro-5,6,7,8-tetrahydro-acridine-3-carboxylic acid [3-(benzyl-ethyl-amino)-propyl]-amide], for which the IC50 was over 200 µM. For the compound `O=C(NCCCN1CCCC1)c1ccc2c(Cl)c3c(nc2c1)CCCC3` [Example 8, 9-Chloro-5,6,7,8-tetrahydro-acridine-3-carboxylic acid (3-pyrrolidin-1-yl-propyl)-amide], the IC50 was over 200 µM. `CCCN1CCN(CCCNC(=O)c2ccc3c(Cl)c4c(nc3c2)CCCC4)CC1` [Example 13, 9-Chloro-5,6,7,8-tetrahydro-acridine-3-carboxylic acid [3-(4-propyl-piperazin-1-yl)-propyl]-amide] gave an IC50 of over 200 µM. In the case of `Cc1cccc(CN2CCC(CNC(=O)c3ccc4c(Cl)c5c(nc4c3)CCCC5)CC2)c1` [Example 1, 9-Chloro-5,6,7,8-tetrahydro-acridine-3-carboxylic acid [1-(3-methyl-benzyl)-piperidin-4-ylmethyl]-amide], the IC50 is over 200 µM. On the same count and under the same terms, for `CCN(CC)CCCNC(=O)c1ccc2c(Cl)c3c(nc2c1)CCCC3` [Example 10, 9-Chloro-5,6,7,8-tetrahydro-acridine-3-carboxylic acid (3-diethylamino-propyl)-amide] the value was over 200 µM; for `O=C(c1ccc2c(Cl)c3c(nc2c1)CCCC3)N1CCC(N2CCCCC2)CC1` [Example 16, [1,4′]Bipiperidinyl-1′-yl-(9-chloro-5,6,7,8-tetrahydro-acridin-3-yl)-methanone], over 200 µM; for `CCN(CC)CCNC(=O)c1ccc2c(Cl)c3c(nc2c1)CCCC3` [Example 7, 9-Chloro-5,6,7,8-tetrahydro-acridine-3-carboxylic acid (2-diethylamino-ethyl)-amide], over 200 µM.

As for `CC1CCCC(C)N1CCCNC(=O)c1ccc2c(Cl)c3c(nc2c1)CCCC3` (stereo not shown) [Example 9, 9-Chloro-5,6,7,8-tetrahydro-acridine-3-carboxylic acid [3-(2,6-dimethyl-piperidin-1-yl)-propyl]-amide], the IC50 is over 200 µM. Turning to `CCCN(CCC)CCNC(=O)c1ccc2c(Cl)c3c(nc2c1)CCCC3` [Example 3, 9-Chloro-5,6,7,8-tetrahydro-acridine-3-carboxylic acid (2-dipropylamino-ethyl)-amide], the IC50 is over 200 µM. Consider `CN(C)CCNC(=O)c1ccc2c(Cl)c3c(nc2c1)CCCC3` [Example 11, 9-Chloro-5,6,7,8-tetrahydro-acridine-3-carboxylic acid (2-dimethylamino-ethyl)-amide], for which the IC50 is over 200 µM. For the compound `O=C(c1ccc2c(Cl)c3c(nc2c1)CCCC3)N1CCCCCC1` [Example 12, Azepan-1-yl-(9-chloro-5,6,7,8-tetrahydro-acridin-3-yl)-methanone], the IC50 was over 200 µM. In turn, `CCN1CCCC1CNC(=O)c1ccc2c(Cl)c3c(nc2c1)CCCC3` (stereo not shown) [Example 2, 9-Chloro-5,6,7,8-tetrahydro-acridine-3-carboxylic acid (1-ethyl-pyrrolidin-2-ylmethyl)-amide] registered an IC50 of over 200 µM.

The compound `CN1CCN(CCCNC(=O)c2ccc3c(Cl)c4c(nc3c2)CCCC4)CC1` [Example 15, 9-Chloro-5,6,7,8-tetrahydro-acridine-3-carboxylic acid [3-(4-methyl-piperazin-1-yl)-propyl]-amide] showed an IC50 of over 200 µM.

A further experiment concerns the target USP7 (Homo sapiens, UniProt Q93009). Briefly: HA-Ub-VS labeling of active DUBs in HCT116 cell lysates. The format is biochemical. Further details: endogenous in cells; host or cells: HCT116 (inducible USP7 shRNA line) cell lysate. The conditions noted are these: different doses (100 μM to 3 μM). From the text: The C-terminally modified vinyl sulfone derivative of ubiquitin, UbVS, was clearly helpful for a direct visualization of active DUBs in cells. This tool, which binds covalently to the cysteine active site of deubiquitinating enzymes, was successfully applied to discover and characterize novel ubiquitin/ubiquitin-like proteases and to profile active deubiquitinating enzymes in normal, virus-infected, and malignant cells (Borodovsky et al., Chem Biol 2002, 9, 1149-1159, Hemelaar et al., Mol Cell Biol 2004, 24, 84-95, Ovaa et al., Proc Natl Acad Sci USA 2004 101, 2253-2258).
The HA-Ub-VS probe (Hemagglutin tag-Ubiquitin-Vinyl Sulfone) was used in this study to directly visualize the activity of all deubiquitinating enzymes from cell lysates. This tool was used to evaluate the activity/specificity of our small molecule compounds on USP7 relative to all deubiquitinating enzymes active in physiological conditions.
Inducible USP7 shRNA HCT116 cells (previously treated with or without Doxycycline (2 μg/ml) for 4 days) as well as HEK293 cells were harvested and lysed on ice with a non denaturating buffer containing Tris pH 7.4, 50 mM; NaCl, 150 mM; MgCl2, 5 mM; EDTA, 0.5 mM; DTT, 2 mM; ATP, 2 mM; NP40, 0.5% and glycerol, 10%. Samples were incubated at 4° C. for 1 hour and clarified. Proteins were then quantified by Bradford method (Bio-Rad Protein Assay). 25 μg of proteins from native cell lysates were treated with compounds of examples 14 and 5 (from 100 μM to 3 μM) or with NEM (N-Ethylmaleimide, a thiol-reactive compound, 5 mM) for 2 hours at room temperature. The ubiquitin labeling reaction was initiated by the addition of HA-Ub-VS (8 μg/ml) in labeling buffer (Tris pH 7.6, 50 mM; MgCl2, 5 mM; EDTA, 0.5 mM; DTT, 2 mM; ATP, 2 mM; sucrose, 250 mM) and incubated at room temperature for 30 min. Samples were next heated at 100° C. for 10 minutes and briefly sonicated. They were resolved by SDS-polyacrylamide gel electrophoresis (SDS-PAGE), transferred to a nitrocellulose membrane and probed with antibodies against USP7 (Bethyl Lab, A300-034A), HA (BabCO, MMS-101P), and actin (Sigma, A2066). Horseradish peroxidase (HRP)-conjugated anti-mouse (Jackson Laboratories, 115-035-003) or HRP-conjugated anti-rabbit (Cell Signaling, 7074) antibodies were used as secondary antibodies. Signals were detected by enhanced chemiluminescence (ECL; Amersham) according to the reagent manufacturer's instructions.
With `CN(CCCNC(=O)c1ccc2c(Cl)c3c(nc2c1)CCCC3)Cc1ccccc1` [Example 14, 9-Chloro-5,6,7,8-tetrahydro-acridine-3-carboxylic acid [3-(benzyl-methyl-amino)-propyl]-amide], the HA-Ub-VS-USP7 protein level result is “specific and dose-dependent decrease”. As for `CCN(CCCNC(=O)c1ccc2c(Cl)c3c(nc2c1)CCCC3)Cc1ccccc1` [Example 5, 9-Chloro-5,6,7,8-tetrahydro-acridine-3-carboxylic acid [3-(benzyl-ethyl-amino)-propyl]-amide], the HA-Ub-VS-USP7 protein level entry was “specific and dose-dependent decrease”.

Still in this experiment, the particulars now being: fixed dose 50 μM, anti-HA immunoblot.
`CN(CCCNC(=O)c1ccc2c(Cl)c3c(nc2c1)CCCC3)Cc1ccccc1` [Example 14, 9-Chloro-5,6,7,8-tetrahydro-acridine-3-carboxylic acid [3-(benzyl-methyl-amino)-propyl]-amide]: the “HA-Ub-VS labeled DUB bands after treatment (HA-Ub-VS-USP7 band)” value is given as “only one band was decreased”.

The values are drawn from patent publication US20110177105A1, “Novel Selective Inhibitors of Ubiquitin Specific Protease 7, the Pharmaceutical Compositions Thereof and Their Therapeutic Applications” (priority 2010, published 2011).
